Source: patent US20030109570A1 (priority 2002, published 2003)
Where a name gives a salt, the structure may show the parent alone.

How the values were obtained:
human PPARα receptor = target: T1, human PPARα receptor (Homo sapiens, UniProt Q07869); assay: Luciferase assay using human PPARα receptor (Gal4 chimera, CV-1 cells); assay type: cell-based; conditions: 24 h, luciferase activity of Wy-14.643 at 10 μM = 100, read-out: PPARα agonist activity, Relative activity
T1 construct: and; expressed in transfected cells; host or cells: CV-1 cells, pSG5-based Gal4-PPAR expression vector
T1 sequence (Q07869 167-468): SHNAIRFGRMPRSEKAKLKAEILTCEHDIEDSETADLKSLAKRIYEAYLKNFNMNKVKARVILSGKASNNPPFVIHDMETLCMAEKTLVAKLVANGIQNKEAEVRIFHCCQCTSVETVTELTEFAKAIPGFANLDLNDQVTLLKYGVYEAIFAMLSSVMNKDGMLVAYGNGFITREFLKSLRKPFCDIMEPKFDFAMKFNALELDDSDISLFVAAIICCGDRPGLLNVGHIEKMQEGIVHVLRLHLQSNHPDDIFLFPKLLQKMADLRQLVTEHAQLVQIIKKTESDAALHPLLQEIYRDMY
Procedure: (§1) 1) Materials for a Luciferase Assay Using Human PPARα and γ
(§2) The entire procedure was conducted using a usual yeast one- or two-hybrid system according to a basic genetic engineering process.
(§3) pGL2-UAS5-TK-luc was prepared as a reporter plasmid having a response sequence of the Gal4 protein as an yeast basic transcription factor and a luciferase gene (luc) under the control by an enhancer sequence with five times repeats of UAS and the thymidine kinase (TK) promoter promoter.
(§4) A vector expressing a chimera receptor in which a ligand binding region in an intranuclear receptor human PPARα or γ receptor was fused to the […] terminus in the DNA binding region of the yeast Gal4 protein was prepared as follows. Specifically, using pSG5 (trade name, STRATAGENE, Catalogue No.216201) as a basic expression vector, the structural gene was replaced with that of a chimera receptor.
(§5) A DNA encoding the ligand binding region in human PPARα or γ receptor was inserted downstream of the DNA binding region in the Gal4 protein, i.e., the DNA encoding the 1st to 147th amino acid sequence such that the frames were aligned and it was inserted downstream of the promoter-enhancer region in pSG5 (trade name). For localizing the expressed chimera receptor in the nucleus, the DNA sequence was constructed such that a nuclear transition signal derived from SV-40T antigen, Ala Pro Lys Lys Lys Arg Lys Val Gly (SEQ ID NO. 4) was present at the amino terminus of the ligand binding region in the human PPARα or γ receptor.
(§6) As the structural gene segment for a ligand binding region in the human PPARα or γ receptor, a DNA was used which encoded:
human PPARα ligand binding region: Ser^167-Tyr^468; and
(§7) 2) Luciferase Assay Using the Human PPARα or γ Receptor
(§8) CV-1 cells used as a host cell were cultured as usual. Specifically, a fetal calf serum (Intergen, Catalogue No.1020-90) was added to the Dulbecco modified eagle medium (DMEM) to the final concentration of 10%, and penicillin G and streptomycin sulfate were then added to the final concentrations of 50 U/mL and 50 μg/mL, respectively. In the medium, the cells were cultured at 37° C. under 5% carbon dioxide.
(§9) The day before transfection, the cells were inoculated in a 24 well plate at 1.5×10^5 cells/well in advance. LipofectAMINE (trade name, GIBCOBRL, Catalogue No.26300-61) was used for transfection. Specifically, for each well, in 40 μL of a serum-free medium Opti-MEM (trade name, GIBCOBRL, Catalogue No.31985-070) were well mixed 100 ng of a reporter plasmid, 12.5 ng of Gal4-PPAR expression vector, 200 ng of pRL-TK (trade name) as an internal control, 287.5 ng of pGEM-3Zf(+) (trade name, PROMEGA, Catalogue No. P2271) as a carrier DNA and 2.6 μL of LipofectAMINE (trade name, GIBCOBRL, Catalogue No.26300-61). To the mixture was added 170.2 μL of Opti-MEM (trade name). After washing with PBS (Phosphate Buffered Saline) and Opti-MEM (trade name), the mixture was added to the above cells. After culturing at 37° C. for 16 hours, the medium was replaced with DMEM-10% charcoal-[…] treated fetal calf serum (trade name, HyClone, Catalogue No. SH30068.03) containing a compound of this invention. After culturing at 37° C. for 24 hours, the cells were lysed and determined for its luciferase activity as usual.

human PPARγ receptor = target: T2, human PPARγ receptor (Homo sapiens, UniProt P37231); assay: Luciferase assay using human PPARγ receptor (Gal4 chimera, CV-1 cells); assay type: cell-based; conditions: 24 h, luciferase activity of Pioglitazone at 1 μM = 100, read-out: PPARγ agonist activity, Relative activity
T2 construct: expressed in transfected cells; host or cells: CV-1 cells, pSG5-based Gal4-PPAR expression vector
T2 sequence (P37231 204-505): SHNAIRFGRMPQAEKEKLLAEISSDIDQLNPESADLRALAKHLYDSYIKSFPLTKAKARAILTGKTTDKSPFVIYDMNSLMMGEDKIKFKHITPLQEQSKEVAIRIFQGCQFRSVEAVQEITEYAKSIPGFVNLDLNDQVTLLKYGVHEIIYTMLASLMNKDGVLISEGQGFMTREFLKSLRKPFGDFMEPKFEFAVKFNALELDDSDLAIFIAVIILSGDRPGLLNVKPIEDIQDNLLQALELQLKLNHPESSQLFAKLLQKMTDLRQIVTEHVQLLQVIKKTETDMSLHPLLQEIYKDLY
Procedure: as §1, §2, §3, §4, §5, §6
human PPARγ ligand binding region: Ser^176-Tyr^478
which correspond to Ser^204-Tyr^506 in the human PPARγ 1 receptor and PPARγ 2 receptor and thus have the same base sequence, from structural comparison for human PPAR receptors described in R. Mukherjee et al., J. Steroid Biochem. Molec. Biol., Vol. 51, p.157 (1994); M. E. Green et al. (Gene Expression., Vol.4, p.281 (1995). For monitoring an effect on basic transcription, was also prepared an expression vector having encoding only the DNA binding region of the Gal4 protein lacking the PPAR ligand binding region, the 1st to 147th amino acid sequence and a nuclear transition signal for SV-40T-antigen.
as §7, §8, §9

KKAy mouse = assay: Hypoglycemic and hypolipidemic effects using a diabetic model mouse (KKAy mouse); assay type: in vivo; conditions: KKAy mice, 30 mg/kg orally once daily for four days, fifth day vs first day; for Reduction rate of a free fatty acid level / Reduction rate of a triglyceride level: plasma
Procedure: Type II diabetic mice “KK-Ay/Ta Jci” (male, Nippon Clare, 10 weeks, five per a group) in each cage were used. In the morning of the initial day of the study, blood was collected from an orbital vein. A glucose level was determined using a new blood sugar test (Boehringer Mannheim) for a centrifuge supernatant after deproteination of the blood with perchloric acid. The blood was centrifuged to prepare a plasma. Then, a triglyceride and a free fatty acid levels in the plasma were determined using Triglyceride E-Test Wako and NEFA-C Test Wako (Wako Pure Chemicals, Inc.), respectively. […] On the fifth day of the study, a blood was collected for determination of a blood glucose level, a triglyceride level and a free fatty acid level. A group to which only 0.5% aqueous CMC solution was administered was used as a control group while a group to which pioglytazone was administered was used as a positive control. A reduction rate for a parameter in each group was calculated using the following equation.

Structure (SMILES)	Emax at 0.1 µM (human PPARα receptor) [%]	Emax at 1 µM (human PPARα receptor) [%]	Emax at 10 µM (human PPARα receptor) [%]	Emax at 0.1 µM (human PPARγ receptor) [%]	Emax at 1 µM (human PPARγ receptor) [%]	Emax at 10 µM (human PPARγ receptor) [%]	Reduction rate of a blood glucose level (KKAy mouse) [%]	Reduction rate of a free fatty acid level (KKAy mouse) [%]	Reduction rate of a triglyceride level (KKAy mouse) [%]
CC(Cc1cc2ccccc2s1)(C(=O)O)C(=O)N1CCOCC1 (stereo not drawn) [Example 11, 2-(benzothiophen-2-yl)methyl-2-methylmalonic Acid N-morpholinoamide]	0.1	0.2	0.3	0.3	0.3	0.3	–	–	–
CC(Cc1cc2ccccc2s1)(C(=O)O)C(=O)NC1CCCCC1 (stereo not drawn) [Example 10, 2-(benzothiophen-2-yl)methyl-2-methylmalonic Acid N-cyclohexylamide]	0.1	0.1	20.7	1.2	2.1	31.2	–	–	–
COc1cc2cc(CC(C)(Oc3ccc(C(=N)N4CCOCC4)cc3)C(=O)O)sc2cc1OC (stereo not drawn) [Example 5, 3-(5,6-dimethoxybenzothiophen-2-yl) -2-methyl-2-(4-morpholinoamidinophenoxy)propanoic Acid Hydrochloride]	0.2	0.3	0.7	0.3	0.3	3.1	–	–	–
CCc1ccc(CCOc2ccc(CC3SC(=O)NC3=O)cc2)nc1 (stereo not drawn) [Pioglytazone, Pioglitazone, reference compound]	–	–	–	–	–	–	28	49	60
COc1cc2cc(CC(C)(C(=O)O)C(=O)NC3CCCCC3)sc2cc1OC (stereo not drawn) [Example 14, 2-(5,6-dimethoxybenzothiophen-2-yl)methyl-2-methylmalonic Acid N-cyclohexylamide]	0.2	0.2	0.6	0.3	0.3	0.5	–	–	–
COc1cc2sc(CC(C)(Oc3ccc(C(C)C)cc3)C(=O)O)cc2c(Cl)c1OC (stereo not drawn) [Example 4, 3-(4-chloro-5,6-dimethoxybenzothiophen-2-yl)-2-(4-isopropylphenoxy)-2-methylpropanoic Acid]	0.3	2.9	249	8	68	69.9	58	69	85
COc1cc2cc(CC(C)(Oc3ccc(C#N)cc3)C(=O)O)sc2cc1OC (stereo not drawn) [Example 2]	0.1	0.1	66.4	17.8	81.9	78.7	–	–	–
CCOC(=O)C(C)(Cc1cc2cc(OC)c(OC)cc2s1)Oc1ccc(C#N)cc1 (stereo not drawn) [Example 1]	0.2	0.2	0.5	0.4	3.2	81.5	–	–	–
CCCCNC(=O)C(C)(Cc1cc2cc(OC)c(OC)cc2s1)Oc1ccc(C#N)cc1 (stereo not drawn) [Example 16]	0.2	0.2	0.1	0.4	0.4	0.3	–	–	–
CCOC(=O)C(C)(Cc1cc2ccccc2s1)C(N)=O (stereo not drawn) [Example 8, 2-(benzothiophen-2-yl)methyl-2-methylmalonamide Ethyl Ester]	0.1	0.1	0.2	0.3	0.3	0.3	–	–	–
COc1cc2cc(CC(C)(Oc3ccc(C#N)cc3)C(N)=O)sc2cc1OC (stereo not drawn) [Example 15]	0.2	0.2	0.1	0.5	0.4	1.1	–	–	–
COc1cc2sc(/C=C(\Oc3ccc(C(C)C)cc3)C(=O)O)cc2c(Cl)c1OC [Example 6, (Z)-3-(4-chloro-5,6-dimethoxybenzothiophen-2-yl)-2-(4-isopropylphenoxy)propenoic Acid]	0.1	0.1	0.1	1.2	19	60.1	–	–	–
CC(C)c1ccc(NC(=O)C(C)(Cc2cc3ccccc3s2)C(=O)O)cc1 (stereo not drawn) [Example 12, 2-(benzothiophen-2-yl)methyl-2-methylmalonic Acid N-(4-isopropylphenyl)amide]	0.2	0.2	0.2	0.3	0.3	0.5	–	–	–
COc1cc2cc(CC(C)(Oc3ccc(C(C)C)cc3)C(=O)O)sc2cc1OC (stereo not drawn) [Example 3, 3-(5,6-dimethoxybenzothiophen-2-yl)-2-(4-isopropylphenoxy)-2-methylpropanoic Acid]	13.2	116	111	9.5	86.7	86.1	–	–	–
